Key:
[1] = system: thioglycolate-induced peritonitis; experiment: Thioglycolate-induced peritonitis murine model; assay type: in vivo, C57BL/6J mice; conditions: 50 mg/kg i.p. 1 h prior to thioglycolate
Procedure: Therapeutic efficacy of the compounds of the present invention was assessed using thioglycolate-induced peritonitis murine models as described by Cook A D et al. (J Immunol. 2003; 171(9):4816-4823) and Tsai J M et al. (Blood Adv. 2019; 3(18):2713-2721. doi: 10.1182/bloodadvances.2018024026).
C57BL/6J mice were injected intraperitoneally (i.p.) with 1 mL of compounds at 50 mg/kg 1 h prior to the induction of peritonitis. Peritonitis was then induced with 1 ml of sterile thioglycolate broth 4% (wt/vol) or PBS as control. After 3 h, mice were anesthetized by i.p. injection with a solution of PBS containing 5 mg/ml ketamine and 1 mg/ml xylazine and peritoneal cavities were washed with 5 ml ice-cold sterile Ca2+/Mg2+-free HBSS 1×containing EDTA 2 mM. Peritoneal exudate cells (PECs) were centrifuged at 1200 rpm for 5 min at 4° C. and red cells lysed. PECs were washed, resuspended in PBS 10% FBS, incubated with anti-CD16/CD32 and mIgG FcR blockers and then stained with fluorescently conjugated antibodies to characterize migrated leukocytes (anti-CD45, anti-CD11b, anti-Ly6G, anti-CD8a, anti-CD4, anti-CD3). Cell viability was measured by 7-AAD exclusion. Specimens were acquired by flow cytometry using MACSQuant Analyzer (Miltenyi Biotec) and analysed using FlowJo software.
Animals: four C57BL/6J mice per group for each compound versus four vehicle treated mice.
Read out was done 1 h after thioglycolate injection.
Readout method: flow cytometry to characterise migrated leukocytes using anti-CD45, anti-CD11b, anti-Ly6G, anti-CD8a, anti-CD4, anti-CD3.
Results and statistical analysis: Results were analysed using FlowJo software. Data were shown as mean±SEM. Two-tailed Student's t test using a significance level of 0.05 is used for the statistical analysis.

[2] = system: human retinal endothelial cells (HRECs); experiment: Inner blood retinal barrier: HREC monolayer permeability to FITC-dextran; assay type: cell-based; conditions: for p < 0.05 (HREC permeability versus diabetic milieu): IL-β, after 90 min
Text: The mechanisms of actions involved in the anti-permeability effect of the tested treatments were explored by assessing permeability to fluorescent dextran and proinflammatory cytokines production using their mRNA expression levels by RT-PCR.
Inner Blood Retinal Barrier conditions: primary human retinal endothelial cells (HRECs) were obtained from a vial of cryopreserved cells purchased from Innoprot (Vizcay, Spain). These cells were isolated from human retinal tissue of cadaveric eyes digested with 0.1 mg/mL collagenase type I at 37° C. for 1 hour. Then, endothelial cells were finally selected with CD31 antibody-coated magnetic beads (DynaBeads; Dynal, Oslo, Norway). HRECs were thawed in the laboratory and cultured in endothelial basal medium (EBM) containing, 5.5 mM D-glucose, 5% FBS (Fetal Bovine Serum), 100 U/mL penicillin, 100 μg/mL streptomycin, and ECG (Endothelial Cell Growth Supplement) supplement (Innoprot, Vizcay, Spain). Human fibronectin (MerckMillipore, Madrid, Spain) at 5 μg/mL was used for cell attachment. Cells at passages 2-3 will be used for the experiments. For experimentation, HRECs were grown to confluence and then cell culture media was changed to medium supplemented with 1% FBS for 24 h and then exposed to different treatments.
Conditions treatments: The same conditions specified for the experiment in ARPE-19 cells were used.
Measurement of HREC permeability: Permeability in HREC monolayers were obtained on permeable supports at 12×10^5 cells/well (24 wells, PCF filters, Merk Millipore). Inserts were incubated for 48 hours at 37° C. in 5% CO2-air to form the monolayer. At the end, medium was serum depleted 24 h before to proceed with the treatments. The lower chamber was filled with 600 μL of complete EBM medium and the upper chamber with 100 μL of cell suspension in serum depleted (1%).
To detect changes in the permeability, 100 μg/ml of fluorescent FITC-DEXTRAN (Sigma, Madrid, Spain), was added to the upper side of the insert. Aliquots of 200 μL from the basal compartment was read in a SpectraMax Gemini (Molecular Devices, Sunnyvale, Calif.) at a wavelength of excitation/emission 485/528 nm every 30 min. Finally, the concentration of dextran was determined by extrapolation of the fluorescence reads in a standard curve. Each condition was tested in triplicate.

[3] = No 3-5: 25 mM D-Gluc + compound 25 μg/mL
[4] = No 6-8: 25 mM D-Gluc + compound 50 μg/mL + VEGF, TNF-α, IL-β (so in the source)
[5] = No 11-13: 25 mM D-Gluc + compound 25 μg/mL + VEGF, TNF-α, IL-β (diabetic milieu)
[6] = No 11-13: compound 25 μg/mL + VEGF, TNF-α
[7] = No 14-16: 25 mM D-Gluc + compound 50 μg/mL + VEGF, TNF-α, IL-β (diabetic milieu)

Structure (SMILES)	% of reduction, CD4+ lymphocytes, treated over vehicle treated mice [1]	% of reduction, CD8+ lymphocytes, treated over vehicle treated mice [1]	% of reduction, Leukocytes (CD45+ cells), treated over vehicle treated mice [1]	% of reduction, PMNs (CD11b-Ly6G double + cells), treated over vehicle treated mice [1]	% permeability HREC [2, 3]	% permeability HREC [2, 4]	% permeability HREC [2, 5]	p < 0.05 (HREC permeability versus diabetic milieu) [2, 6]	% permeability HREC [2, 7]	Cell counts, CD4+ lymphocytes, treated mice ([1]; peritoneal exudate cells)	Cell counts, CD8+ lymphocytes, treated mice ([1]; peritoneal exudate cells)	Cell counts, Leukocytes (CD45+ cells), treated mice ([1]; peritoneal exudate cells)	Cell counts, PMNs (CD11b-Ly6G double + cells), treated mice ([1]; peritoneal exudate cells)	p < 0.05 (HREC permeability versus diabetic milieu) ([2]; No 14-16: compound 50 μg/mL + VEGF, TNF-α)
O=C(O)c1cc(O)c(CN(Cc2cc(O)c(C(=O)O)cc2O)Cc2cc(O)c(C(=O)O)cc2O)cc1O [IIIc-061a, Tris(4-carboxy-2,5-dihydroxyphenylmethyl)amine]	42.9%	33.3%	−2.4%	−8.3%										
O=C(O)c1cc(NC(=O)c2cc(O)cc(C(=O)Nc3ccc(O)c(C(=O)O)c3)c2O)ccc1O [IIc-007a, 5-(3-(3-carboxy-4-hydroxyphenylaminocarbonyl)-2,5-dihydroxybenzamido)-2-hydroxy benzoic acid]	40.0%	20.0%	11.8%	27.3%	136.3 ± 16.7%	147.7 ± 17.6%	135.8 ± 16.6%	* (* p < 0.05 for FITC dextran leakage measured after 90 min in [ng/mL/cm^2] in comparison with diabetic milieu (25 mM D-Gluose + VEGF, TNF-α, IL-β))	145.2 ± 8.8%					
O=C(O)c1cc(NC(=O)c2cc(O)c(C(=O)Nc3ccc(O)c(C(=O)O)c3)cc2O)ccc1O [Ic-007a, 5-(4-(3-carboxy-4-hydroxyphenylaminocarbonyl)-2,5-dihydroxybenzamido)-2-hydroxy benzoic acid]	35%	71%	48%	80%	126.3 ± 8.3%	127.4 ± 2.1%	111.6 ± 24.2%	* (* p < 0.05 for FITC dextran leakage measured after 90 min in [ng/mL/cm^2] in comparison with diabetic milieu (25 mM D-Gluose + VEGF, TNF-α, IL-β))	159.0 ± 23.9%	1.03 × 10^4	0.54 × 10^4	31.3 × 10^4	2.03 × 10^4	
O=C(O)c1cc(O)cc(CS(=O)(=O)Cc2cc(O)cc(C(=O)O)c2O)c1O [IVc-059a, 3-((2,5-Dihydroxy-3-carboxyphenyl)methylsulfonylmethyl)-2,5-dihydroxybenzoic acid]	6.0%	23.0%	4.0%	−13.0%	109.9 ± 24.7%	135.4 ± 6.7%	124.0 ± 6.3%	* (* p < 0.05 for FITC dextran leakage measured after 90 min in [ng/mL/cm^2] in comparison with diabetic milieu (25 mM D-Gluose + VEGF, TNF-α, IL-β))	115.3 ± 14.7%					* (* p < 0.05 for FITC dextran leakage measured after 90 min in [ng/mL/cm^2] in comparison with diabetic milieu (25 mM D-Gluose + VEGF, TNF-α, IL-β))

— patent US20230150951A1, “2,5- OR 2,6-DISUBSTITUTED HYDROQUINONE DERIVATIVES WITH AT LEAST ONE CARBOXY, SULFO OR AMIDO GROUP USEFUL AS MEDICAMENTS” (OM PHARMA SA, priority 2020, published 2023)
